# According to EP1059033A1, “INDUSTRIAL ANTIBACTERIAL/ANTIFUNGAL AGENTS, ALGICIDES AND ANTI-BIOLOGICAL ADHESION AGENTS CONTAINING BENZYLAMINES” (Nissan Chemical Industries, Ltd., priority 1998, dated 1999):
# System: freshwater green alga (Selenastrum capricornutum)
# Test: Inhibition of propagation of freshwater green alga (Example 4)
# Type: cell-based
# Settings: 500ppb, after 72 hours, cell number vs non-treated lot, read-out: Propagation inhibiting rate(%) 500ppb
# Protocol: A predetermined amount of each of the compounds of the invention was dissolved in a culture medium containing 10^5 /ml of a freshwater green alga (Selenastrum capricornutum) at a logarithmic growth phase to prepare samples having a concentration of the compound of the invention in the medium of 500 ppb and 50ppb respectively. The samples were stationary cultured at 23±1 °C for […] under continuous illumination.
# After 72 hours, the number of cells was measured using a hemacytometer to obtain propagation rate. The propagation inhibiting rate was calculated from comparison with the non-treated lot.
row,Structure (SMILES),inhibition at 0.5 ppm [%]
1,Cc1ccc(C)c(CN(C)Cc2ccc(C(C)(C)C)cc2)c1 [Compound 8],90
2,Cc1cc(C)c(CN(C)Cc2ccc(C(C)(C)C)cc2)c(C)c1 [Compound 20],63
3,CC(C)Cc1ccc(CN(C)Cc2cccc3ccccc23)cc1 [Compound 32],86
4,CC(C)(C)c1ccc(CNCc2ccc(Cl)c(Cl)c2)cc1 [Compound 34],98
5,Clc1ccc(CNCc2cccc3ccccc23)cc1Cl [Compound 49],97

# System: Trichophyton mentagrophytes
# Test: not given
# Type: cell-based
# Settings: 72 h, 100 ppm
# Protocol: 31.3 ml of Trichophyton mentagrophytes to be tested was added to 125 ml of a potato dextrose agar culture medium (Nissui Seiyaku Co.). The medium was stirred not to foam the solutions, poured into plates uniformly and solidified.
# Thereafter, predetermined amounts of the compounds of the invention were weighted and diluted with acetone to predetermined concentrations.
# Paper disks were impregnated with samples containing predetermined amounts of the compounds of the invention, laid on a filter, dried with air and placed on a plate containing test microbe at equal intervals.
# Trichophyton mentagrophytes was cultured at 28 °C for 3 days in a thermostatic chamber and the diameter of each inhibiting zone was measured to evaluate the activity of each compound. Symbols in the table mean the followings; • A: Trichophyton mentagrophytes, • ++: strongly inhibiting zone (equal to or more than 21 mm) is observed, • +: inhibiting zone (10 to 20 mm) is observed, • -: no inhibiting zone is observed.
row,Structure (SMILES),Judgment (Target bacteria: A)
1,Cc1ccc(C)c(CN(C)Cc2ccc(C(C)(C)C)cc2)c1 [Compound 8],++ (strongly inhibiting zone (equal to or more than 21 mm) is observed)

# System: freshwater green alga (Chlorella pyrenoidosa)
# Test: Inhibition of propagation of freshwater algae (Example 6)
# Type: cell-based
# Settings: Auxenochlorella pyrenoidosa, 500ppb, 168hr, read-out: Propagation inhibiting rate(%) 500ppb 168hr
# Protocol: (§1) A predetermined amount each of the compounds of the invention was dissolved in a culture medium containing 10^5 /ml of a freshwater alga at a logarithmic growth phase to prepare samples having a concentration of the compound of the invention in the medium of 500 ppb and 50 ppb respectively. A shaking culture at 100 rpm was performed for […] under continuous illumination at 20±2 °C for freshwater diatom and at 23±2 °C for other algae.
# (§2) After 72 hours and 168 hours, the […] of cells was measured using a hemacytometer to obtain propagation rate. The propagation inhibiting rate was calculated from comparison with the non-treated lot. Symbols in the tables mean the followings; • A: freshwater green alga (Chlorella pyrenoidosa), • B: freshwater blue-green alga (Microcystis aeruginosa), • C: freshwater diatom (Diatoma elongatum), • D: freshwater green alga (Scenedesmus pannonicus).
row,Structure (SMILES),inhibition at 0.5 ppm [%]
1,Cc1ccc(C)c(CN(C)Cc2ccc(C(C)(C)C)cc2)c1 [Compound 8],86
2,CC(C)Cc1ccc(CN(C)Cc2cccc3ccccc23)cc1 [Compound 32],75

# System: freshwater green alga (Scenedesmus pannonicus)
# Test: as above
# Type: cell-based
# Settings: Desmodesmus pannonicus, 500ppb, 72hr, read-out: Propagation inhibiting rate (%) 500ppb 72hr
# Protocol: as §1, §2
row,Structure (SMILES),inhibition at 0.5 ppm [%]
1,Cc1ccc(C)c(CN(C)Cc2ccc(C(C)(C)C)cc2)c1 [Compound 8],72
2,CC(C)Cc1ccc(CN(C)Cc2cccc3ccccc23)cc1 [Compound 32],83

# Same assay, conditions: Desmodesmus pannonicus, 500ppb, 168hr, read-out: Propagation inhibiting rate (%) 500ppb 168hr
row,Structure (SMILES),inhibition at 0.5 ppm [%]
1,Cc1ccc(C)c(CN(C)Cc2ccc(C(C)(C)C)cc2)c1 [Compound 8],86

# System: seawater diatom [Nitzschia closterium]
# Test: Inhibition of propagation of seawater diatom (Example 5)
# Type: cell-based
# Settings: Cylindrotheca closterium, 72 h, read-out: Propagation inhibiting rate(%) 500ppb
# Protocol: A predetermined amount of each of the compounds of the invention was dissolved in culture media containing 10^5 /ml of a seawater diatom [Nitzschia closterium] at a logarithmic growth phase to prepare samples having a concentration of the compound in the medium of 500 ppb. The samples were stationary cultured at 22±1 °C for […] under continuous illumination.
# After 72 hours, cells were collected by centrifugation and disrupted by addition of methanol to extract chlorophyll, and the amount of chlorophyll was measured from absorbance using a spectrophotometer to obtain propagation rate. The propagation inhibiting rate was calculated from comparison with the non-treated lot.
row,Structure (SMILES),inhibition at 0.5 ppm [%]
1,CC(C)(C)c1ccc(CNCc2ccc(Cl)c(Cl)c2)cc1 [Compound 34],100
2,Clc1ccc(CNCc2cccc3ccccc23)cc1Cl [Compound 49],100

# System: Trichophyton mentagrophytes
# Test: Agar dilution MIC (Example 2)
# Type: cell-based
# Settings: 168 h, agar plate, 27 °C, 7 days
# Protocol: (§3) Series of diluted samples (20000, 10000, 5000, 2500, 2000, 1250, 625, 313, 156, 78, 39, 20, 10, 5, 2.5, 1.25 mg/l) of the compounds of the invention were prepared using dimethylsulfoxide. A sensitive culture medium-N (Nissui Seiyaku Co.) was used for bacteria and a potato dextrose agar culture medium (Nissui Seiyaku Co.) was used for fungi. 0.5 ml of each sample was added to and mixed with 9.5 ml of the culture medium, poured into a Petri dish and solidified to obtain a plate. As a result, the concentration of the compounds of the invention in the agar culture medium were 1000, 500, 250, 125, 100, 62.5, 31.3, 15.6, 7.8, 3.9, 2.0, 1.0, 0.5, 0.25, 0.125, 0.062 mg/l. The bacterium inoculated were cultured in a bouillon for the assay of sensitivity (Nissui Seiyaku Co.) at 37 °C for 20 hours, and the fungi were cultured in the potato dextrose agar culture medium (Nissui Seiyaku Co.) for 10 days and then a 10^6 CFU/ml suspension was prepared from each of them. A test bacteria or fungi suspension was streaked on an agar plate containing the compound of the present invention with platinum wire loop, and the agar plate was cultured at 37±1 °C for 18 to 20 hours for bacteria or at 27 °C for 7 days for fungi. A concentration at which no growth was seen was taken as minimum inhibitory concentration [MIC(mg/l)]. Symbols in the table mean the followings; • A: Bacillus subtilis, • B: Trichophyton mentagrophytes, • C: Rhodotorula mucilaginosa.
row,Structure (SMILES),MIC [µg/mL]
1,CN(Cc1ccc(C(C)(C)C)cc1)Cc1c(Cl)cccc1Cl [Compound 19],0.25
2,Cc1cc(C)c(CN(C)Cc2ccc(C(C)(C)C)cc2)c(C)c1 [Compound 20],2

# Second part, the compound after the results:
row,MIC [µg/mL],Structure (SMILES)
1,< 1,CC(C)Cc1ccc(CN(C)Cc2cccc3ccccc23)cc1 [Compound 32]
2,7.8,CC(C)(C)c1ccc(CNCc2ccc(Cl)c(Cl)c2)cc1 [Compound 34]
3,15.6,Clc1ccc(CNCc2cccc3ccccc23)cc1Cl [Compound 49]

# System: Rhodotorula mucilaginosa
# Test: Agar dilution MIC (Example 2)
# Type: cell-based
# Settings: 168 h, agar plate, 27 °C, 7 days
# Protocol: as §3
row,MIC [µg/mL],Structure (SMILES)
1,15.6,Cc1cc(C)c(CN(C)Cc2ccc(C(C)(C)C)cc2)c(C)c1 [Compound 20]
2,62.5,CC(C)(C)c1ccc(CNCc2ccc(Cl)c(Cl)c2)cc1 [Compound 34]
3,62.5,Clc1ccc(CNCc2cccc3ccccc23)cc1Cl [Compound 49]

# System: Bacillus subtilis
# Test: Agar dilution MIC (Example 2)
# Type: cell-based
# Settings: agar plate, 37±1 °C, 18 to 20 hours
# Protocol: as §3
row,MIC [µg/mL],Structure (SMILES)
1,15.6,CN(Cc1ccc(C(C)(C)C)cc1)Cc1c(Cl)cccc1Cl [Compound 19]

# System: Corynebacterium aquaticum
# Test: Agar dilution MIC (Example 3)
# Type: cell-based
# Settings: Leifsonia aquatica, agar plate, 37±1 °C, 18 to 20 hours
# Protocol: (§4) Series of diluted samples (20000, 10000, 5000, 2500, 1250, 625, 313, 156, 78, 39 mg/l) of the compounds of the invention were prepared using dimethylsulfoxide. A sensitive culture medium-N (Nissui Seiyaku Co.) was used for bacteria and a potato dextrose agar culture medium (Nissui Seiyaku Co.) was used for fungi. 0.5 ml of each sample was added to and mixed with 9.5 ml of the culture medium, poured into a Petri dish and solidified to obtain a plate. As a result, the concentration of the compounds of the invention in the agar culture medium were 1000, 500, 250, 125, 62.5, 31.3, 15.6, 7.8, 3.9, 2.0 mg/l. The bacterium inoculated were cultured in a bouillon for the assay of sensitivity (Nissui Seiyaku Co.) at 37 °C for 20 hours, and the fungi were cultured in the potato dextrose agar culture medium (Nissui Seiyaku Co.) for 10 days and then a 10^6 CFU/ml suspension was prepared from each of them. A test bacteria or fungi suspension was streaked on an agar plate containing the compound of the present invention with platinum wire loop, and the agar plate was cultured at 37±1 °C for 18 to 20 hours for bacteria or at 27 °C for 7 days for fungi. A concentration at which no growth was seen was taken as minimum inhibitory concentration (MIC). Symbols in the tables mean the followings; • A: Bacillus subtilis, • B: Trichophyton mentagrophytes, • C: Staphylococcus aureus, • D: Aspergillus niger, • E: Penicillium funiculosum, • F: Candida albicans, • G: Micrococcus luteus, • H: Corynebacterium aquaticum, • I: Chaetomium globosum, • J: Fusarium moniliforme, • K: Saccharomyces cerevisiae, • L: Rhodotorula rubra, • M: Cladosporium cladosporioides, • N: Alternaria alternata.
row,MIC [µg/mL],Structure (SMILES)
1,31.3,Cc1ccc(C)c(CN(C)Cc2ccc(C(C)(C)C)cc2)c1 [Compound 8]
2,7.8,Cc1cc(C)c(CN(C)Cc2ccc(C(C)(C)C)cc2)c(C)c1 [Compound 20]

# System: Saccharomyces cerevisiae
# Test: Agar dilution MIC (Example 3)
# Type: cell-based
# Settings: 168 h, agar plate, 27 °C, 7 days
# Protocol: as §4
row,MIC [µg/mL],Structure (SMILES)
1,125,Cc1ccc(C)c(CN(C)Cc2ccc(C(C)(C)C)cc2)c1 [Compound 8]
2,15.6,Cc1cc(C)c(CN(C)Cc2ccc(C(C)(C)C)cc2)c(C)c1 [Compound 20]

# System: Cladosporium cladosporioides
# Test: Agar dilution MIC (Example 3)
# Type: cell-based
# Settings: 168 h, agar plate, 27 °C, 7 days
# Protocol: as §4
row,MIC [µg/mL],Structure (SMILES)
1,63,Cc1ccc(C)c(CN(C)Cc2ccc(C(C)(C)C)cc2)c1 [Compound 8]

# System: Penicillium funiculosum
# Test: Agar dilution MIC (Example 3)
# Type: cell-based
# Settings: Talaromyces funiculosus, 168 h, agar plate, 27 °C, 7 days
# Protocol: as §4
row,MIC [µg/mL],Structure (SMILES)
1,31.3,Cc1ccc(C)c(CN(C)Cc2ccc(C(C)(C)C)cc2)c1 [Compound 8]
2,15.6,Cc1cc(C)c(CN(C)Cc2ccc(C(C)(C)C)cc2)c(C)c1 [Compound 20]

# System: Fusarium moniliforme
# Test: Agar dilution MIC (Example 3)
# Type: cell-based
# Settings: Fusarium verticillioides, 168 h, agar plate, 27 °C, 7 days
# Protocol: as §4
row,MIC [µg/mL],Structure (SMILES)
1,31.3,Cc1cc(C)c(CN(C)Cc2ccc(C(C)(C)C)cc2)c(C)c1 [Compound 20]

# System: Chaetomium globosum
# Test: Agar dilution MIC (Example 3)
# Type: cell-based
# Settings: 168 h, agar plate, 27 °C, 7 days
# Protocol: as §4
row,MIC [µg/mL],Structure (SMILES)
1,63,Cc1ccc(C)c(CN(C)Cc2ccc(C(C)(C)C)cc2)c1 [Compound 8]
2,31.3,Cc1cc(C)c(CN(C)Cc2ccc(C(C)(C)C)cc2)c(C)c1 [Compound 20]

# System: Alternaria alternata
# Test: Agar dilution MIC (Example 3)
# Type: cell-based
# Settings: 168 h, agar plate, 27 °C, 7 days
# Protocol: as §4
row,MIC [µg/mL],Structure (SMILES)
1,15.6,Cc1cc(C)c(CN(C)Cc2ccc(C(C)(C)C)cc2)c(C)c1 [Compound 20]

# System: Aspergillus niger
# Test: Agar dilution MIC (Example 3)
# Type: cell-based
# Settings: 168 h, agar plate, 27 °C, 7 days
# Protocol: as §4
row,MIC [µg/mL],Structure (SMILES)
1,7.8,Cc1ccc(C)c(CN(C)Cc2ccc(C(C)(C)C)cc2)c1 [Compound 8]
2,7.8,Cc1cc(C)c(CN(C)Cc2ccc(C(C)(C)C)cc2)c(C)c1 [Compound 20]

# System: Rhodotorula rubra
# Test: Agar dilution MIC (Example 3)
# Type: cell-based
# Settings: 168 h, agar plate, 27 °C, 7 days
# Protocol: as §4
row,MIC [µg/mL],Structure (SMILES)
1,125,Cc1ccc(C)c(CN(C)Cc2ccc(C(C)(C)C)cc2)c1 [Compound 8]
2,31.3,Cc1cc(C)c(CN(C)Cc2ccc(C(C)(C)C)cc2)c(C)c1 [Compound 20]
